pIC50: −log10 of the molar value.
molecular target: ROCK2 (Homo sapiens, UniProt O75116); assay: ROCK2 assay (Caliper LABCHIP peptide phosphorylation); assay type: biochemical; conditions: 5 μM ATP, 1.5 μM peptide substrate
Method: The effectiveness of compounds of the present invention as ROCK inhibitors can be determined in a 30 μL assay containing 20 mM HEPES, pH 7.5, 20 mM MgCl2, 0.015% Brij-35, 4 mM DTT, 5 μM ATP and 1.5 μM peptide substrate (FITC-AHA-AKRRRLSSLRA-OH) (SEQ ID NO.1). Compounds were dissolved in DMSO so that the final concentration of DMSO was <2%, and the reaction was initiated with Rho kinase variants. After incubation, the reaction was terminated by the addition of EDTA and the phosphorylated and non-phosphorylated peptides separated using a LABCHIP® 3000 Reader (Caliper Life Sciences). […] Compounds were tested in dose-response format, and the inhibition of kinase activity was calculated at each concentration of compound. The inhibition data were fit using a curve-fitting program to determine the IC50; i.e., the concentration of compound required to inhibit 50% of kinase activity.
Representative Examples were tested in the ROCK2 assay described above and found having ROCK2 inhibitory activity. The ranges of the ROCK2 IC50 values are as follows: ROCK2 IC50: ++++ (<3 nM) +++ (3-30 nM) ++ (30-300 nM) + (300-2000 nM)

ROCK2, sequence (O75116 whole entry, species assumed): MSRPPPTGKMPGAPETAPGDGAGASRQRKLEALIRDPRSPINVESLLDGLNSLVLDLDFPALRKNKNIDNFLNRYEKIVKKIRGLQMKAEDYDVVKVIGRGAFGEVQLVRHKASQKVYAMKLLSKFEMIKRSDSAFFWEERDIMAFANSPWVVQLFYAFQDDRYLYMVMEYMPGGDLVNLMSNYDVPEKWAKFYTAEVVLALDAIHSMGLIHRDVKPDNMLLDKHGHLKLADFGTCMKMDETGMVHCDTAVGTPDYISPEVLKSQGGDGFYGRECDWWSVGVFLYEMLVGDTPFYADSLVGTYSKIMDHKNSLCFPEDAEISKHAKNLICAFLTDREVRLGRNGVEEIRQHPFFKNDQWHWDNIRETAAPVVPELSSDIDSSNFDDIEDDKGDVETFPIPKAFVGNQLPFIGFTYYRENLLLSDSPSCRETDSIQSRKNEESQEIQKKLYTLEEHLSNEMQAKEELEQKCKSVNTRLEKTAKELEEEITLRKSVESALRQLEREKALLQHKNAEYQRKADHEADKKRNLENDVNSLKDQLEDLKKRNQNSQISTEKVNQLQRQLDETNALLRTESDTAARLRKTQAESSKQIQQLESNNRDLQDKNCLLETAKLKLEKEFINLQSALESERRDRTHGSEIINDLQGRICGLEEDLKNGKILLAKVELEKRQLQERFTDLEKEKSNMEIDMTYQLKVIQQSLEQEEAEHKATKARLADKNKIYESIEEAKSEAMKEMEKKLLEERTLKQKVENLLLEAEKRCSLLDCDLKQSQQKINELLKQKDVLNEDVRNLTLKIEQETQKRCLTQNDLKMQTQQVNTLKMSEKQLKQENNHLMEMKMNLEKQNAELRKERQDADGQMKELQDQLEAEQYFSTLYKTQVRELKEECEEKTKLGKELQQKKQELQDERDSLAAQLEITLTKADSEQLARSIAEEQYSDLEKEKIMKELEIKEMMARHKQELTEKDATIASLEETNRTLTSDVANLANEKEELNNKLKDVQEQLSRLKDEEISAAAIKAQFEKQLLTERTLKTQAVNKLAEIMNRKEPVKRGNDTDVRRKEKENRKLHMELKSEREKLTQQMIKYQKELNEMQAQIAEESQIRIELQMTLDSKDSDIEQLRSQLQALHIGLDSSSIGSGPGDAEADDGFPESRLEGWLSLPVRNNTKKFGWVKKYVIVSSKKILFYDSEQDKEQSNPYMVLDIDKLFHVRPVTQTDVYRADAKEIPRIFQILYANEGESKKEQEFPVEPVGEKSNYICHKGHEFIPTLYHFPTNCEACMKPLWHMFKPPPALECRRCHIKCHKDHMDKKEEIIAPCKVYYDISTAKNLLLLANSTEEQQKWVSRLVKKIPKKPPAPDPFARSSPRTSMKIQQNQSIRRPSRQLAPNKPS

SMILES | pIC50
COc1ccc2c(c1)CC1(CCN(c3ccc(-c4cn[nH]c4)cc3)C1=O)O2 (stereo not drawn) [Example 24, 1′-(4-(1H-Pyrazol-4-yl)phenyl)-5-methoxy-3H-spiro[benzofuran-2,3′-pyrrolidin]-2′-one] | > 8.52
Cc1cccc2c1CC1(CCN(c3ccc(-c4cn[nH]c4)cc3)C1=O)N2 (stereo not drawn) [Example 27, 1′-(4-(1H-Pyrazol-4-yl)phenyl)-4-methylspiro[indoline-2,3′-pyrrolidin]-2′-one] | 7.52 to 8.52
O=C1N(c2ccc(-c3cn[nH]c3)cc2)CCC12Cc1ncccc1N2 (stereo not drawn) [Example 28, 1-(4-(1H-Pyrazol-4-yl)phenyl)-1′,3′-dihydrospiro[pyrrolidine-3,2′-pyrrolo[3,2-b]pyridin]-2-one] | 6.52 to 7.52
COc1cc(N2CCC3(Cc4ccccc4C3)C2=O)ccc1-c1cn[nH]c1 [Example 35, 1′-(3-Methoxy-4-(1H-pyrazol-4-yl)phenyl)-1,3-dihydrospiro[indene-2,3′-pyrrolidin]-2′-one] | 7.52 to 8.52
CC(C)(O)COc1ccc2c(c1)NC1(CCN(c3ccc(-c4cn[nH]c4)cc3)C1=O)C2 (stereo not drawn) [Example 36] | 6.52 to 7.52
O=C1N(c2ccc(-c3cn[nH]c3)cc2)CCC12Cc1ccc(O)cc1N2 (stereo not drawn) [Example 37] | > 8.52
O=C1N(c2ccc(-c3cn[nH]c3)cn2)CCC12Cc1ccccc1N2 (stereo not drawn) [Example 41, 1′-(5-(1H-Pyrazol-4-yl)pyridin-2-yl)spiro[indoline-2,3′-pyrrolidin]-2′-one] | 7.52 to 8.52
O=C1N(c2cnc(-c3cn[nH]c3)cn2)CCC12Cc1ccccc1N2 (stereo not drawn) [Example 44, 1′-(5-(1H-Pyrazol-4-yl)pyrazin-2-yl)spiro[indoline-2,3′-pyrrolidin]-2′-one] | 7.52 to 8.52
O=C1N(c2ccc(-c3ccncc3)cc2)CCC12Cc1ccccc1N2 (stereo not drawn) [Example 45, 1′-(4-(Pyridin-4-yl)phenyl)spiro[indoline-2,3′-pyrrolidin]-2′-one] | 7.52 to 8.52
O=C1N(c2ccc(-c3ccncc3)cc2)CCC12Cc1ccccc1O2 (stereo not drawn) [Example 46, 1′-(4-(Pyridin-4-yl)phenyl)-3H-spiro[benzofuran-2,3′-pyrrolidin]-2′-one] | 7.52 to 8.52
O=C1N(c2ccc(-c3cn[nH]c3)cc2)CCC12CCc1ccccc1N2 (stereo not drawn) [Example 47, 1-(4-(1H-pyrazol-4-yl)phenyl)-3′,4′-dihydro-1 ^1H-spiro[pyrrolidine-3,2′-quinolin]-2-one] | > 8.52
O=C1N(c2ccc(-c3cn[nH]c3)cc2)CCC12Cc1ccccc1CN2 (stereo not drawn) [Example 48, 1′-(4-(1H-pyrazol-4-yl)phenyl)-1,4-dihydro-2H-spiro[isoquinoline-3,3′-pyrrolidin]-2′-one] | 6.52 to 7.52
O=C1N(c2ccc(-c3ccnc4[nH]ccc34)cc2)CCC12Cc1ccccc1CN2 (stereo not drawn) [Example 49, 1′-(4-(1H-pyrrolo[2,3-b]pyridin-4-yl)phenyl)-1,4-dihydro-2H-spiro[isoquinoline-3,3′-pyrrolidin]-2′-one] | 7.52 to 8.52
O=C1N(c2ccc(-c3cn[nH]c3)cc2)CCC12CCc1ccccc1O2 (stereo not drawn) [Example 50, 1′-(4-(1H-pyrazol-4-yl)phenyl)spiro[chromane-2,3′-pyrrolidin]-2′-one] | 6.52 to 7.52
CC1(C)c2ccccc2NC12CCN(c1ccc(-c3cn[nH]c3)cc1)C2=O (stereo not drawn) [Example 51, 1′-(4-(1H-pyrazol-4-yl)phenyl)-3,3-dimethylspiro[indoline-2,3′-pyrrolidin]-2′-one] | > 8.52
O=C1N(c2ccc(-c3cn[nH]c3)cc2)CC(CO)C12Cc1ccccc1N2 (stereo not drawn) [Example 52, 1′-(4-(1H-pyrazol-4-yl)phenyl)-4′-(hydroxymethyl)spiro[indoline-2,3′-pyrrolidin]-2′-one] | > 8.52
NCC1CN(c2ccc(-c3cn[nH]c3)cc2)C(=O)C12Cc1ccccc1N2 (stereo not drawn) [Example 53, 1′-(4-(1H-pyrazol-4-yl)phenyl)-4′-(aminomethyl)spiro[indoline-2,3′-pyrrolidin]-2′-one] | > 8.52
O=C1N(c2ccc(-c3cn[nH]c3)cc2)CC(CO)[C@@]12Cc1ccccc1N2 (stereo partly drawn) [Example 54, (2S)-1′-(4-(1H-pyrazol-4-yl)phenyl)-4′-(hydroxymethyl)spiro[indoline-2,3′-pyrrolidin]-2′-one] | > 8.52

Source: patent US10696674B2, “Spirolactams as inhibitors of ROCK” (BRISTOL-MYERS SQUIBB COMPANY, priority 2016, dated 2020)
